Data from the supplement of paper PMC13380429.

Columns and labels:
Conditions in all cases: 72 h
Caco-2 [1] = test: cell viability relative to DMSO; higher = less toxic
Calu-3 [2] = test: as above
U2OS [3] = test: as above
Vero E6 [4] = test: as above
Caco-2 [5] = test: relative viability EC50 (midpoint between 100% and the lowest measured viability); higher = less toxic
Calu-3 [6] = test: as above
U2OS [7] = test: as above
Vero E6 [8] = test: as above
Caco-2 [9] = test: drug sensitivity score (DSS) for viability; higher = more toxic; extreme values may be limits of the assay
Calu-3 [10] = test: as above
U2OS [11] = test: as above
Vero E6 [12] = test: as above
HepG2 [13] = test: cell viability relative to DMSO; higher = less toxic
HepG2 [14] = test: relative viability EC50 (midpoint between 100% and the lowest measured viability); higher = less toxic
HepG2 [15] = test: drug sensitivity score (DSS) for viability; higher = more toxic; extreme values may be limits of the assay

Row | SMILES | cell viability (Caco-2 [1]; 1 nM) [%] | cell viability (Caco-2 [1]; 10 nM) [%] | cell viability (Caco-2 [1]; 100 nM) [%] | cell viability (Caco-2 [1]; 1000 nM) [%] | cell viability (Caco-2 [1]; 10000 nM) [%] | cell viability (Calu-3 [2]; 1 nM) [%] | cell viability (Calu-3 [2]; 10 nM) [%] | cell viability (Calu-3 [2]; 100 nM) [%] | cell viability (Calu-3 [2]; 1000 nM) [%] | cell viability (Calu-3 [2]; 10000 nM) [%] | cell viability (U2OS [3]; 1 nM) [%] | cell viability (U2OS [3]; 10 nM) [%] | cell viability (U2OS [3]; 100 nM) [%] | cell viability (U2OS [3]; 1000 nM) [%] | cell viability (U2OS [3]; 10000 nM) [%] | cell viability (Vero E6 [4]; 1 nM) [%] | cell viability (Vero E6 [4]; 10 nM) [%] | cell viability (Vero E6 [4]; 100 nM) [%] | cell viability (Vero E6 [4]; 1000 nM) [%] | cell viability (Vero E6 [4]; 10000 nM) [%] | relative viability EC50 (Caco-2 [5]) [µM] | relative viability EC50 (Calu-3 [6]) [µM] | relative viability EC50 (U2OS [7]) [µM] | relative viability EC50 (Vero E6 [8]) [µM] | drug sensitivity score (Caco-2 [9]) | drug sensitivity score (Calu-3 [10]) | drug sensitivity score (U2OS [11]) | drug sensitivity score (Vero E6 [12]) | cell viability (HepG2 [13]; 1 nM) [%] | cell viability (HepG2 [13]; 10 nM) [%] | cell viability (HepG2 [13]; 100 nM) [%] | cell viability (HepG2 [13]; 1000 nM) [%] | cell viability (HepG2 [13]; 10000 nM) [%] | relative viability EC50 (HepG2 [14]) [µM] | drug sensitivity score (HepG2 [15])
1 | CCc1[nH]c(=O)[nH]c1C(=O)c1ccncc1 [piroximone] | 96.4 | 95.2 | 88.7 | 99.4 | 94.6 | 103 | 110 | 99.3 | 95.2 | 89.3 | 93.5 | 103 | 94.6 | 102 | 94.1 | 99 | 94.6 | 96.8 | 93.3 | 94.6 | > 10 | > 10 | > 10 | > 10 | 0 | 0 | 0 | 0 | – | – | – | – | – | – | –
2 | NCCCC(O)(P(=O)(O)O)P(=O)(O)O [alendronate] | 97.4 | 102 | 96.9 | 99.8 | 94.3 | 85.5 | 103 | 92.3 | 107 | 98.5 | 96.6 | 103 | 94.8 | 104 | 97.7 | 102 | 98.5 | 106 | 103 | 106 | > 10 | > 10 | > 10 | > 10 | 0 | 0 | 0 | 0 | 101 | 91.7 | 107 | 95.4 | 88.8 | > 10 | 0.1
3 | C[C@H]1CNCCCN1S(=O)(=O)c1cccc2cncc(F)c12 [ripasudil] | 92 | 90.4 | 87.5 | 99.2 | 101 | 88.6 | 98.1 | 102 | 138 | 143 | 98.4 | 100 | 99.4 | 99.8 | 92.9 | 109 | 103 | 105 | 91.6 | 88.7 | > 10 | > 10 | > 10 | > 10 | 0 | 0 | 0 | 0.2 | 111 | 101 | 101 | 92.1 | 88 | > 10 | 0.3
